# From US20260355225A1 (priority 2022, published 2026)
# Values joined by “and” are separate entries in the source; they are usually repeats but may differ in a detail not shown here. Equal values may be shown once.
# Experiments:
# [1] = according to Sigma cat #1.08689; cited from earlier work
# [2] = Antiviral assay against HIV-1 NL4-3, percentage of infected cells by immunofluorescence (Example 2); settings: human, hela tzmbl cells, Viability Percentages, D-xylose 104.000 mM, replicate wells
# [3] = tested on: HIV-1 NL4-3; experiment: as above; settings: Human immunodeficiency virus 1, NL43, 48 h
# [4] = tested on: SARS-CoV-2; experiment: Antiviral assay, inhibition of virus-induced cytopathic effect (CPE) of SARS-CoV-2 by MTT assay (Example 1); settings: for Viability percentage: 4320 min
# [5] = tested on: glycosaminoglycans; settings: fibroblasts, keranocytes, CHO, BHK, BAE and other cells; cited from earlier work
# [6] = tested on: glycated hemoglobin (HbA1c); settings: healthy person; cited from earlier work
# [7] = D-xylose absorption tests; cited from earlier work
# [8] = tested on: HeLa TZMBL cells; experiment: Cytotoxicity of D-xylose alone or + insulin, MTT assay, absence of viral infection (Example 2); settings: for Cytotoxicity percentage / Viability percentage: 2880 min
# [9] = as above; settings: human, hela tzmbl cells
# [10] = Cytotoxicity of D-xylose, MTT assay, absence of viral infection (Example 1); assay type: cell-based; settings: monkey, vero cells
# Description: (§1) Cells (Vero E6) were used, with two modes of administration: either at the same time or 6 h before infection with SARS-CoV-2 (isolated early).
# (§2) The readout for this test is CPE, so the infection will be stopped at 72 hpi (hours post-infection), and the compound will remain for the duration of the experiment. In parallel, the cytotoxicity of the same compound concentrations will be tested in the absence of viral infection.
# (§3) The day before the experiment, the 8,000 cells/well are seeded in two 96-well plates (clear, Sarstedt), one for the antiviral study and one for the cytotoxicity study.
# (§4) 134.4 μl of the 1 M composition is transferred to 1,465.6 μl of infection medium (=84 mM, twice the final maximum concentration).
# (§5) Next, the cell support in the cytotoxicity plate is removed.
# (§6) Immediately afterwards, 50 μl of undiluted infection medium is added to all the wells.
# (§7) Next, 50 μl of infection medium without diluent is added to columns 4 to 6.
# (§8) Next, the plate is incubated at 37 °C, 5% CO2 for 48 h.
# (§9) After 72 h, when the CPE is evident, an MTT assay is performed for the antiviral and cytotoxicity plates.
# [11] = tested on: Vero AD cells; experiment: as above; assay type: cell-based; settings: 6 h pre-treatment
# Description: as §1, §2, §3, §4, §5, §6, §7, §8, §9
# [12] = tested on: cells; settings: cited from earlier work
structure (smiles),measurement,setting,value
O=C[C@H](O)[C@@H](O)[C@H](O)CO [D-xylose],solubility,[1],550 g/L
same,"viability at 48 h, 104000 µM",[2],20.8%
same,activity at 1625 µM,"[3]; read-out: % Infection, D-xylose 1.625 mM, replicate wells",20.8%
same,activity at 3250 µM,"[3]; read-out: % Infection, D-xylose 3.250 mM, replicate wells",20.4%
same,activity at 6500 µM,"[3]; read-out: % Infection, D-xylose 6.500 mM, replicate wells",18.1%
same,activity at 13000 µM,"[3]; read-out: % Infection, D-xylose 13.000 mM, replicate wells",20.4%
same,activity at 26000 µM,"[3]; read-out: % Infection, D-xylose 26.000 mM, replicate wells",20.6%
same,activity at 52000 µM,"[3]; read-out: % Infection, D-xylose 52.000 mM, replicate wells",20.2%
same,activity at 104000 µM,"[3]; read-out: % Infection, D-xylose 104.000 mM, replicate wells",14.9%
same,absorbance at 570 nm,"[4]; 6 h pre-treatment, 0.328125 mM",0.067 and 0.073 and 0.088
same,absorbance at 570 nm,"[4]; 6 h pre-treatment, 0.65625 mM",0.08 and 0.081 and 0.085
same,Viability percentage,"[4]; 6 h pre-treatment, 0.65625 mM, 656.25 µM",−8.66% and −7.49% and −2.79%
same,absorbance at 570 nm,"[4]; 6 h pre-treatment, 1.3125 mM",0.08 and 0.099 and 0.091
same,absorbance at 570 nm,"[4]; 6 h pre-treatment, 2.625 mM",0.075 and 0.121 and 0.124
same,absorbance at 570 nm,"[4]; 6 h pre-treatment, 5.25 mM",0.087 and 0.106 and 0.098
same,absorbance at 570 nm,"[4]; 6 h pre-treatment, 10.5 mM",0.102 and 0.096
same,absorbance at 570 nm,"[4]; 6 h pre-treatment, 21 mM",0.116 and 0.109 and 0.098
same,absorbance at 570 nm,"[4]; 6 h pre-treatment, 42 mM",0.095 and 0.09 and 0.108
same,viability at 10500 µM,"[4]; Severe acute respiratory syndrome coronavirus 2, Vero C1008, in Chlorocebus sabaeus, 72 h, read-out: Viability percentage, 6 h pre-treatment, 10.5 mM",17.2%
same,viability at 656.25 µM,"[4]; Severe acute respiratory syndrome coronavirus 2, Vero C1008, in Chlorocebus sabaeus, 72 h, read-out: Viability percentage, at time of infection, 0.65625 mM",10.1%
same,IC50,"[4]; Severe acute respiratory syndrome coronavirus 2, co-administration of D-xylose and SARS-CoV-2",95.5 mM
same,IC50,"[4]; Severe acute respiratory syndrome coronavirus 2, pre-incubation of D-xylose 6 h prior to SARS-CoV-2 infection",26.2 mM
same,absorbance at 570 nm,"[4]; at time of infection, 0.328125 mM",0.088 and 0.087
same,Viability percentage,"[4]; at time of infection, 0.328125 mM, 328.125 µM",0.73% and −0.44%
same,absorbance at 570 nm,"[4]; at time of infection, 0.65625 mM",0.096 and 0.099 and 0.101
same,Viability percentage,"[4]; at time of infection, 0.65625 mM, 656.25 µM",13.66% and 16.01%
same,absorbance at 570 nm,"[4]; at time of infection, 1.3125 mM",0.096 and 0.094 and 0.091
same,Viability percentage,"[4]; at time of infection, 1.3125 mM, 1312.5 µM",7.78% and 4.26%
same,absorbance at 570 nm,"[4]; at time of infection, 2.625 mM",0.141 and 0.113 and 0.103
same,absorbance at 570 nm,"[4]; at time of infection, 5.25 mM",0.09 and 0.137 and 0.126
same,absorbance at 570 nm,"[4]; at time of infection, 10.5 mM",0.109 and 0.131 and 0.107
same,absorbance at 570 nm,"[4]; at time of infection, 21 mM",0.111 and 0.151 and 0.113
same,absorbance at 570 nm,"[4]; at time of infection, 42 mM",0.059 and 0.095 and 0.09
same,stimulation of glycosaminoglycans,[5],proven glycosaminoglycan stimulators of several cell types
same,effect on glycated hemoglobin (HbA1c) levels,[6],little or no effect
same,side effects,[7],"laxative effects in adults, diarrhea, nausea, and vomiting"
same,median cytotoxic concentration (TC50),"[8]; 48 h, MTT",260.3
same,Results for Cytotoxicity (MTT readout),[8]; D-xylose 1.625 mM,2.399 and 2.351 and 2.424
same,Cytotoxicity percentage,"[8]; D-xylose 1.625 mM, 1625 µM",0.47% and 2.50% and −0.58%
same,Viability percentage,"[8]; D-xylose 1.625 mM, 1625 µM",97.50% and 100.58%
same,Results for Cytotoxicity (MTT readout),[8]; D-xylose 3.25 mM,2.286 and 2.266 and 2.242
same,Cytotoxicity percentage,"[8]; D-xylose 3.25 mM, 3250 µM",6.09% and 7.10%
same,Viability percentage,"[8]; D-xylose 3.25 mM, 3250 µM",93.91% and 92.90%
same,Results for Cytotoxicity (MTT readout),[8]; D-xylose 6.5 mM,2.168 and 2.211 and 2.316
same,Cytotoxicity percentage,"[8]; D-xylose 6.5 mM, 6500 µM",10.22% and 8.41% and 3.98%
same,Viability percentage,"[8]; D-xylose 6.5 mM, 6500 µM",91.59% and 96.02%
same,Results for Cytotoxicity (MTT readout),[8]; D-xylose 13 mM,2.175 and 2.293 and 2.032
same,Viability percentage,"[8]; D-xylose 13 mM, 13000 µM",95.05% and 84.04%
same,Results for Cytotoxicity (MTT readout),[8]; D-xylose 26 mM,2.196 and 2.137 and 2.158
same,Cytotoxicity percentage,"[8]; D-xylose 26 mM, 26000 µM",11.53% and 10.64%
same,Viability percentage,"[8]; D-xylose 26 mM, 26000 µM",88.47% and 89.36%
same,Results for Cytotoxicity (MTT readout),[8]; D-xylose 52 mM,2.123 and 2.266 and 2.199
same,Cytotoxicity percentage,"[8]; D-xylose 52 mM, 52000 µM",6.09% and 8.91%
same,Viability percentage,"[8]; D-xylose 52 mM, 52000 µM",93.91% and 91.09%
same,Results for Cytotoxicity (MTT readout),[8]; D-xylose 104 mM,2.075 and 2.027 and 2.064
same,Cytotoxicity percentage,"[8]; D-xylose 104 mM, 104000 µM",16.17% and 14.61%
same,Viability percentage,"[8]; D-xylose 104 mM, 104000 µM",83.83% and 85.39%
same,"cytotoxicity at 48 h, 3250 µM","[9]; Cytotoxicity percentage, D-xylose 3.25 mM",5.24%
same,"cytotoxicity at 48 h, 26000 µM","[9]; Cytotoxicity percentage, D-xylose 26 mM",9.04%
same,"cytotoxicity at 48 h, 52000 µM","[9]; Cytotoxicity percentage, D-xylose 52 mM",12.1%
same,"cytotoxicity at 48 h, 104000 µM","[9]; Cytotoxicity percentage, D-xylose 104 mM",14.1%
same,"viability at 48 h, 1625 µM","[9]; Viability percentage, D-xylose 1.625 mM",99.5%
same,"viability at 48 h, 3250 µM","[9]; Viability percentage, D-xylose 3.25 mM",94.8%
same,"viability at 48 h, 6500 µM","[9]; Viability percentage, D-xylose 6.5 mM",89.8%
same,"viability at 48 h, 13000 µM","[9]; Viability percentage, D-xylose 13 mM",90.1%
same,"viability at 48 h, 26000 µM","[9]; Viability percentage, D-xylose 26 mM",91%
same,"viability at 48 h, 52000 µM","[9]; Viability percentage, D-xylose 52 mM",87.9%
same,"viability at 48 h, 104000 µM","[9]; Viability percentage, D-xylose 104 mM",85.9%
same,viability at 328.125 µM,"[10]; 6 h pre-treatment, 0.328125 mM, read-out: Viability percentage",130%
same,viability at 656.25 µM,"[10]; 6 h pre-treatment, 0.65625 mM, read-out: Viability percentage",90.9%
same,viability at 1312.5 µM,"[10]; 6 h pre-treatment, 1.3125 mM, read-out: Viability percentage",122%
same,viability at 2625 µM,"[10]; 6 h pre-treatment, 2.625 mM, read-out: Viability percentage",108%
same,viability at 5250 µM,"[10]; 6 h pre-treatment, 5.25 mM, read-out: Viability percentage",115%
same,viability at 10500 µM,"[10]; 6 h pre-treatment, 10.5 mM, read-out: Viability percentage",109%
same,viability at 21000 µM,"[10]; 6 h pre-treatment, 21 mM, read-out: Viability percentage",110%
same,viability at 42000 µM,"[10]; 6 h pre-treatment, 42 mM, read-out: Viability percentage",108%
same,CC50,"[10]; MTT, no virus",> 42 mM
same,Viability percentage,"[11]; 0.328125 mM, 328.125 µM",119.81%
same,Viability percentage,"[11]; 0.65625 mM, 656.25 µM",100.84% and 108.33%
same,Cytotoxicity percentage,"[11]; 1.3125 mM, 1312.5 µM",−21.81% and −24.31% and −17.82%
same,Viability percentage,"[11]; 1.3125 mM, 1312.5 µM",124.31% and 117.82%
same,Viability percentage,"[11]; 2.625 mM, 2625 µM",118.32% and 114.82%
same,Cytotoxicity percentage,"[11]; 5.25 mM, 5250 µM",−15.32% and −18.81% and −10.83%
same,Viability percentage,"[11]; 5.25 mM, 5250 µM",118.81% and 110.83%
same,Cytotoxicity percentage,"[11]; 10.5 mM, 10500 µM",−9.33% and −10.83% and −6.33%
same,Viability percentage,"[11]; 10.5 mM, 10500 µM",110.83% and 106.33%
same,Cytotoxicity percentage,"[11]; 21 mM, 21000 µM",−9.83% and −10.33%
same,Viability percentage,"[11]; 21 mM, 21000 µM",110.33%
same,Cytotoxicity percentage,"[11]; 42 mM, 42000 µM",−7.83% and −9.83% and −3.34%
same,Viability percentage,"[11]; 42 mM, 42000 µM",103.34%
same,xylose in cytosol at equilibrium,[12]; in the presence of insulin,80%
same,xylose in plasma at equilibrium,[12]; in the presence of insulin,20%
same,increase of penetration rate of D-xylose into the cells,[12]; with insulin,two to five times
